This is an account of results in patent US11541060B2, “Pharmaceutical compositions for treating pain” (FOREVER CHEER INTERNATIONAL LIMITED, priority 2017, dated 2023).

In assay [1] the test system is morphine tolerance in mice. In words: Morphine tolerance after repeated morphine injections (hotplate, tail-flick). Particulars: mouse, in vivo.
The next assay has as its system pre-LTP in ACC. In words: pre-LTP in ACC cortical slices. The class given is cell-based, adult mice. Particulars: 25 μM (SQ22356 'same dose'; NB011 concentration not given), FIG. 1B/FIG. 2.
Assay [2] deals with anxiety caused by nerve injury in mice. The assay is described as follows: Anxiety behavior test (EPM) after nerve injury. The class given is in vivo. Particulars: FIG. 6.
For assay [3], the system named is behavioral itching (scratching) response in mice. In words: Itching response to intradermal compound 48/80. The assay is classed as in vivo. Particulars: compound 48/80 100 μg/50 μl intradermal, FIG. 7.
Assay [4] concerns morphine-induced place preference in mice. In words: Conditioned place preference (CPP) to morphine. The class given is in vivo.
Assay [5] has as its system post-LTP in ACC. Particulars: recent report (Chen et al., 2014); cited from earlier work.
The test system of assay [6] is post-LTP in ACC. The assay is described as follows: post-LTP (ACC LTP) in ACC cortical slices. The assay is classed as cell-based. Particulars: 25 μM, ACC slices of adult mice, FIG. 1A.
Assay [7] addresses adenylyl cyclase subtype 8 (AC8) (Homo sapiens, UniProt P40145). The assay is described as follows: cAMP assay in AC8 expressing cell line (biochemical screening for AC1 & 8 inhibitors). The assay is classed as cell-based. Particulars: for inhibition of AC8 activity (in words): 100 μM; for inhibition at 100 µM: read-out: Percent Inhibition AC8.
For assay [8], the target named is adenylyl cyclase subtype 1 (AC1) (Homo sapiens, UniProt Q08828). In words: cAMP assay in AC1 expressing cell line (biochemical screening for AC1 & 8 inhibitors). The assay is classed as cell-based. Particulars: for inhibition of AC1 activity (in words): 100 μM; for inhibition at 100 µM: read-out: Percent Inhibition AC1.

“Also recorded” adds a separate entry of the source.

Chain of adenylyl cyclase subtype 8 (AC8) (P40145 whole entry, species assumed): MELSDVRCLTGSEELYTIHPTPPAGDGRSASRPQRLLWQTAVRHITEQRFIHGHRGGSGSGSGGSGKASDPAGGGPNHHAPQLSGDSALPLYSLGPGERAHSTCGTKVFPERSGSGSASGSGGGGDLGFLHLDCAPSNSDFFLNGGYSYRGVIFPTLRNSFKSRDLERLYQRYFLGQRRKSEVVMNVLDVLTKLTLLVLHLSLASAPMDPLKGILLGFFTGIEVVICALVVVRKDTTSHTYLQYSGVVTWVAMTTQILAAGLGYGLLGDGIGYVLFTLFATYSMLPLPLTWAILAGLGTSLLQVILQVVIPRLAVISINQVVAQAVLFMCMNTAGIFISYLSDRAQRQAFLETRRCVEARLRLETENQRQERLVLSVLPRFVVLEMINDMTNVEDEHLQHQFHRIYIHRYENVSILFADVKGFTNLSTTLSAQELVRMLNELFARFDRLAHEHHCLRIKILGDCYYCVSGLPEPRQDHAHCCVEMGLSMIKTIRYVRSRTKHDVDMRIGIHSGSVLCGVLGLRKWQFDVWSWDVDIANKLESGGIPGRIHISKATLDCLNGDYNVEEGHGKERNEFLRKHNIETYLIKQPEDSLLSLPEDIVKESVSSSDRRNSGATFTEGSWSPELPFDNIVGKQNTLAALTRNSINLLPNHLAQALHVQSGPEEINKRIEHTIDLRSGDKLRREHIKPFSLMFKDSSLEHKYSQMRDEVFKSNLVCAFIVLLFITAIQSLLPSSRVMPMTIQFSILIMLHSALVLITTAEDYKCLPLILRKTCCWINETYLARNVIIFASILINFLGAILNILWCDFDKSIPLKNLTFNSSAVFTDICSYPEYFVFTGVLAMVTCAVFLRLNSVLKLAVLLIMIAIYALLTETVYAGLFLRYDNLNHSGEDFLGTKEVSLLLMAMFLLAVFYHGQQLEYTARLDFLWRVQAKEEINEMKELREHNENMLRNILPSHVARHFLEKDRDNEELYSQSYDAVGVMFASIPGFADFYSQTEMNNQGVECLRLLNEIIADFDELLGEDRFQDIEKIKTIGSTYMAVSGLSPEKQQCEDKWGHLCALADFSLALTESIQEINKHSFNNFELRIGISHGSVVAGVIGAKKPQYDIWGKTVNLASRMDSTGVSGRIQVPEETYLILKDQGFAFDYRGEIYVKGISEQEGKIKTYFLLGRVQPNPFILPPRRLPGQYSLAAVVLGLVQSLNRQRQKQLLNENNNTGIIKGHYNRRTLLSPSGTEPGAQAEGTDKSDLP
Chain of adenylyl cyclase subtype 1 (AC1) (Q08828 whole entry): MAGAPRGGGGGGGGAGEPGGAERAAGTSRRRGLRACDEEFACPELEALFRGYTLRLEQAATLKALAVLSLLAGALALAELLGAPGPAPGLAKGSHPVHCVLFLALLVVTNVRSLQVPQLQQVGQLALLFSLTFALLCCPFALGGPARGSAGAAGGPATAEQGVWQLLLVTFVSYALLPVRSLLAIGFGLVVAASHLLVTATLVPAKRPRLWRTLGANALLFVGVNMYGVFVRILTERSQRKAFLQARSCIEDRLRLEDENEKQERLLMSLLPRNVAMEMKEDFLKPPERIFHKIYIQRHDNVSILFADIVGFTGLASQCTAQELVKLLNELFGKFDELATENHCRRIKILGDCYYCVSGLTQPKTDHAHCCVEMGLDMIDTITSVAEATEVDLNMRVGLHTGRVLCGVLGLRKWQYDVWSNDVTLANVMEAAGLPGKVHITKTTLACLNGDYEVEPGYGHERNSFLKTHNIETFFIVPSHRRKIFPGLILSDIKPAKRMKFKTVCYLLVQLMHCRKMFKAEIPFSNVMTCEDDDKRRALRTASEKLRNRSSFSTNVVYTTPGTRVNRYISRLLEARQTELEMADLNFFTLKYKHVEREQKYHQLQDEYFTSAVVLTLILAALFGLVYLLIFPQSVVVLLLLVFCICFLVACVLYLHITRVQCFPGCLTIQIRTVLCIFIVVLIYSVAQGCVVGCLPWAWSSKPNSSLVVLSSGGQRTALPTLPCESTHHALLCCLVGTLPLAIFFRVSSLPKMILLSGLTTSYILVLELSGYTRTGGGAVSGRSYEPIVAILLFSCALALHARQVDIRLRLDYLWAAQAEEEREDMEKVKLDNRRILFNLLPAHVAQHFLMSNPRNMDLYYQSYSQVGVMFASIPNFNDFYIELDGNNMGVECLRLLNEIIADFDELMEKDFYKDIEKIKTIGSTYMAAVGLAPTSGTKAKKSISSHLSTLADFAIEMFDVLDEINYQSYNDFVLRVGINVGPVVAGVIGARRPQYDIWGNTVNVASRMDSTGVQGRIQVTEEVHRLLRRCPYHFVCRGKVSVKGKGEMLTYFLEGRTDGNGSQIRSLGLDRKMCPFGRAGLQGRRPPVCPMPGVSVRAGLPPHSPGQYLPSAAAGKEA

`NCC1(CC(=O)O)CCCCC1` [GABApentin, reference compound]: in assay [1], the “morphine tolerance / morphine analgesic effect” value is “did not produce a significant effect; also recorded: did not produce any significant effect”. In the assay on pre-LTP in ACC, the “induction of pre-LTP” value was “not blocked”. Further, the “anxiety caused by nerve injury (EPM test)” value (shortened to “anxiety caused”) in assay [2] (100 mg/kg i.p.) is “Neither GABApentin (100 mg/kg, i.p.) nor SQ22356 (5 mg/kg) significantly reduced; also recorded: no significant effect”. Besides, the “total scratching (itching) responses” value in [3] (100 mg/kg) is given as “neither GABApentin nor SQ22356 produce any significant effect”; in assay [3] (100 mg/kg, listed as GABApention) it was “did not cause a significant reduction”. In addition, the morphine-induced place preference entry in [4] (100 mg/kg, morphine 10 mg/kg, after 9 days, FIG. 5) is recorded as “did not produce any significant effect”. Moreover, in the assay on post-LTP in ACC [5], the “effect on ACC LTP” value is listed as “does not affect”.

Take `Nc1ncnc2c1ncn2CCNCCCCCO` [NB001, 5-((2-(6-amino-9H-purin-9-yl)ethyl)amino)pentane-1-ol]: in assay [4] (mouse, in vivo), the morphine-induced place preference result was “significantly less time; also recorded: significant reduce; also recorded: expected effect was not produced”.

The inhibition is the percentage by which the read-out fell short of the control. In the case of `Cc1ccc(OCCn2c(S)nc3c(N)ncnc32)cc1` [NB010], the results for the “morphine tolerance / morphine analgesic effect” value in assay [1] and in assay [1] (1 mg/kg) were “significant greater analgesic effects; also recorded: reduced” and “no significant effect”, respectively. For the same compound, the “induction of pre-LTP” value with pre-LTP in ACC is listed as “inhibit; also recorded: blocked”. Also, the “anxiety caused” value was “significant reduction; also recorded: reduced anxiety” in [2] (5 mg/kg, 7 days after injury) and “did not significantly decrease; also recorded: neither NB010 nor NB011 affected anxiety” in [2] (low dose 1 mg/kg, 1 mg/kg). For the same compound, in the assay with post-LTP in ACC [6], the “induction of post-LTP (ACC LTP)” value is “blocked”. The “total scratching (itching) responses” value in assay [3] (pretreatment (dose not given)) is listed as “significantly reduced”. The “inhibition of AC8 activity (in words)” value in [7] was “significant inhibition”. In addition, the inhibition at 100 µM came out at 88 ± 2% in [7] and 96 ± 4% in assay [8]. Also, the “inhibition of AC1 activity (in words)” value in assay [8] is reported as “significant inhibition”.

For `c1nc(N2CCOCC2)c2nc[nH]c2n1` [NB011, 4-(9H-purin-6-yl)morpholine], the “morphine tolerance / morphine analgesic effect” value in assay [1] is on record as “significant greater analgesic effects; also recorded: reduced”; in [1] (1 mg/kg), “no significant effect”. The “induction of pre-LTP” value with pre-LTP in ACC was “inhibit; also recorded: decrease”. In addition, the “anxiety caused” value in assay [2] (5 mg/kg, 7 days after injury) is “significant reduction; also recorded: reduced anxiety”; in assay [2] (low dose 1 mg/kg, 1 mg/kg) it was “neither NB010 nor NB011 affected anxiety”. For the same compound, the “total scratching (itching) responses” value in assay [3] (pretreatment (dose not given)) is on record as “significantly reduced”. Further, the “inhibition of AC8 activity (in words)” value in assay [7] was “significant inhibition”. Also, the results for the inhibition at 100 µM in assay [7] and in assay [8] were 86 ± 2% and 91 ± 3%, respectively. Besides, the morphine-induced place preference entry in assay [4] (dose reduced to 1 mg/kg (not shown in figure)) is “expected effect was not produced”. Further, in [8], the “inhibition of AC1 activity (in words)” value is on record as “significant inhibition”.

Consider `Nc1ncnc2c1ncn2C1CCCO1` (centres unmarked) [SQ22356, reference compound], for which the “morphine tolerance / morphine analgesic effect” value in assay [1] was “no significant effect; also recorded: did not produce any significant effect”. In addition, the “induction of pre-LTP” value in the assay with pre-LTP in ACC was “did not cause a significant decrease”. In assay [2] (5 mg/kg, 7 days after injury), the “anxiety caused” value is “Neither GABApentin (100 mg/kg, i.p.) nor SQ22356 (5 mg/kg) significantly reduced; also recorded: no significant effect”. The “total scratching (itching) responses” value in assay [3] (5 mg/kg) is “did not show significantly reduction”. Moreover, the morphine-induced place preference result in assay [4] (5 mg/kg, morphine 10 mg/kg, after 9 days, FIG. 5) is “did not produce any inhibition”.
